The test system of this experiment is Tomato seeds of hybrid tomato var. Royal Mounty. Put plainly: In vitro tomato seedling root growth bioassay (agar medium). Type of experiment: in vivo. To be noted: day 7; control water. The method, then: Tomato seeds of hybrid tomato var. Royal Mounty were surface sterilized with 10% bleach solution for 10 minutes followed by 3 rinses with sterilized distilled water. Seeds were then dried in a laminar air flow hood for 3 hours. Seeds were then placed in petri-dishes on solidified agar medium containing various concentrations of different sources of the LCO illustrated in FIG. 1b (manufactured by Darmstadt, Germany and Grenoble, France) (also referred to in the examples as the “soybean LCO”) and the inventive CO illustrated in FIG. 2a (also referred to in the examples as the “pea CO” or “CO-V”). Seedling roots were measured by a hand ruler and root fresh weights were taken in a micro balance at day 7. Growth study was done in a growth chamber at 22° C.

For the substance “LCO-V(C18:1, MeFuc) [Soybean LCO, reference compound]”, the “root fresh weight, compared to control seedlings” value is “significantly better than control seedlings” and the “root length, compared to control seedlings” value is “significantly better than control seedlings”.

For the origin of these results see patent US12185720B2, “Chitooligosaccharides and methods for use in enhancing plant growth” (NOVOZYMES BIOAG A/S, priority 2011, dated 2025).
